Entries after “also recorded” stand apart in the source; their conditions may differ.
What was measured:
COX2, IL8, and TNFα = experiment: Inflammation gene expression after TNFα treatment of 3D bioprinted intestinal tissue; type: cell-based, human; settings: TNFα high dose, 24 hours
Experimental: To characterize the 3D bioprinted intestinal model response to inflammation, commonly associated with GI toxicity as well as chronic disease conditions, tissues were treated with a high dose of pro-inflammatory cytokine TNFα for 24 hours and evaluated for changes in morphology, LDH release, and gene expression (FIG. 28).

[1] = test system: 3D bioprinted intestinal tissue
[2] = test system: 3D printed tissues and 2D epithelial monolayers of Caco-2/STC-1 cells; experiment: Lucifer Yellow permeability (barrier integrity) of 3D printed Caco-2 tissues and 2D monolayers; type: in vitro ADME, human; settings: bioprinted 3D constructs and 2D monolayers (Caco-2/STC-1), later stages of culture
Experimental: FIG. 5 is a bar graph showing permeability comparison of 2D monolayers and 3D bioprinted Caco-2 tissues measured by Lucifer Yellow. […] Permeability was measured on 3D printed tissues and compared to 2D epithelial monolayers of Caco-2/STC-1 cells and interstitium alone.
Experiment time course studies were run 4, 7, and 14 days post addition of epithelial cells. Tissues were measured for GLP-1 secretion into supernatant. Tissues were also measured for barrier function at multiple time points by TEER or Lucifer yellow (non-lytic assays). After incubation, the tissues were fixed in paraformaldehyde (PFA) for histology or lysed for RNA extraction.

[3] = test system: 3D bioprinted intestinal tissue; remark: listed apart in the source
BCRP = molecular target: T1, BCRP (Homo sapiens, UniProt Q9UNQ0)
T1 sequence (Q9UNQ0 1-655): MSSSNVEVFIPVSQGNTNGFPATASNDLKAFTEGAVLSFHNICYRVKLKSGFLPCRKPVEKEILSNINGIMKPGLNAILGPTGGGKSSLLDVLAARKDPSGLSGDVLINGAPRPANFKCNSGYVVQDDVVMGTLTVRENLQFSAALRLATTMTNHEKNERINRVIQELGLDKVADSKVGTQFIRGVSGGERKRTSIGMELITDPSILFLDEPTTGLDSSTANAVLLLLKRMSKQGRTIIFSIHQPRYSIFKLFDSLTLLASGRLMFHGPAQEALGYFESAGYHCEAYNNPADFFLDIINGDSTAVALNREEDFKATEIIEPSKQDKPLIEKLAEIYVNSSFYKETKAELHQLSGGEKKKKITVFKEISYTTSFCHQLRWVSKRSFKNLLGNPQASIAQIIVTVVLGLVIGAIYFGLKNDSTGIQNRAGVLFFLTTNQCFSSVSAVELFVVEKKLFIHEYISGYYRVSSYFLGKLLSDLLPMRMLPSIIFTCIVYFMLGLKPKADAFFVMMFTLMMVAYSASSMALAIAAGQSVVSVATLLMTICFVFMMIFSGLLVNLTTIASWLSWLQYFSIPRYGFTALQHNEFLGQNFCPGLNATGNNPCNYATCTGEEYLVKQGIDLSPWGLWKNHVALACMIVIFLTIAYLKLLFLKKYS
Experimental: FIGS. 25A-25D show P-gp and BCRP transporter function in 3D bioprinted intestinal tissue.
P-gp and BCRP function were tested in the 3D bioprinted intestinal tissue model by measuring bi-directional transport with and without inhibition (FIG. 25C).

[4] = test system: prostaglandin E2 synthesis; experiment: Prostaglandin E2 synthesis in 3D bioprinted intestinal tissue; type: cell-based, human; settings: all indomethacin doses tested
[5] = test system: 3D bioprinted intestinal tissue; settings: higher / increasing doses of indomethacin
[6] = test system: 3D bioprinted intestinal tissue; experiment: Barrier function (TEER) of 3D bioprinted intestinal tissue after toxicant treatment; settings: 24 hour incubation, varying doses
[7] = test system: 3D bioprinted intestinal tissue; experiment: LDH activity / release from 3D bioprinted intestinal tissue after toxicant treatment

Molecule: TNFα
- gene expression of COX2, IL8 and TNFα (COX2, IL8, and TNFα): upregulated
- barrier function [1]: decreased barrier function

Molecule: Lucifer yellow
- Lucifer Yellow permeability [2]: < 3%

Molecule: C[C@H]1O[C@@H](O[C@H]2[C@@H](O)C[C@H](O[C@H]3[C@@H](O)C[C@H](O[C@H]4CC[C@@]5(C)[C@H](CC[C@@H]6[C@@H]5C[C@@H](O)[C@]5(C)[C@@H](C7=CC(=O)OC7)CC[C@]65O)C4)O[C@@H]3C)O[C@@H]2C)C[C@H](O)[C@@H]1O [digoxin]
- permeability in the apical to basal direction [3]: moderate

Molecule: CC[C@@]1(O)C(=O)OCc2c1cc1n(c2=O)Cc2cc3c(CN(C)C)c(O)ccc3nc2-1 [topotecan]
- efflux ratio (BCRP; control conditions): 8.8

Molecule: O=C1c2c(O)ccc(O)c2C(=O)c2c(NCCNCCO)ccc(NCCNCCO)c21 [mitoxantrone]
- permeability in the B to A direction compared with A to B (BCRP): much higher permeability

Molecule: COc1ccc2c(c1)c(CC(=O)O)c(C)n2C(=O)c1ccc(Cl)cc1 [indomethacin]
- prostaglandin E2 synthesis [4]: decreased to similar levels for all indomethacin doses tested; also recorded: inhibition of prostaglandin E2 synthesis
- E-Cadherin expression (marker of barrier function) [5]: reduction in E-Cadherin; also recorded: decreased expression of E-Cadherin
- histology of the epithelium [5]: disruption of the epithelium and distorted nuclear staining; also recorded: increased disruption of the epithelial layer
- barrier function measured by TEER [6]: dose response decrease in TEER; also recorded: dose-dependent decrease in barrier function; also recorded: decreased TEER
- LDH activity ([7]; 24 hour treatment, increasing indomethacin dose): increased
- LDH release ([7]; indomethacin doses above 0.25 mM): significantly increased
